Values quoted from earlier work as cited in patent publication US10851274B2, “Coolant mixtures for use in heat-exchange devices in the aerospace field” (Safran Electrical & Power, priority 2016, dated 2020).

Legend:
[1] = known fluids; for FP: water and antigels, criterion ≥23
[2] = known fluids, water and antigels; criterion <100
[3] = known fluids, water and antigels; criterion >500
[4] = for Toxicity: known coolant fluids, water and antigels, criterion: No; for Toxicity (in words): known fluids

O=C=O [Carbon dioxide]
FP [1]: None | Tb [2]: −57 °C | ΔHvap [3]: 400 kJ/kg | Toxicity [4]: No (a fluid is non-toxic if its oral LD50 is greater than 500 mg/kg)

CCOCC(C)O (stereo not shown) [1-ethoxy-2-propanol]
FP [1]: 42 °C | Tb [2]: 132 °C | ΔHvap [3]: 308 kJ/kg | Toxicity [4]: No (a fluid is non-toxic if its oral LD50 is greater than 500 mg/kg)

CC(C)=O [Acetone]
Flammability (in words) [1]: highly flammable | FP [1]: −20 °C | Tb [2]: 57 °C | ΔHvap [3]: 501 kJ/kg | Toxicity [4]: No (a fluid is non-toxic if its oral LD50 is greater than 500 mg/kg)

N [Ammoniac, ammonia]
FP [1]: 132 °C | Tb [2]: −33 °C | ΔHvap [3]: 1371 kJ/kg | Toxicity [4]: Yes | Toxicity (in words) [4]: toxic

CCO [Ethanol]
Flammability (in words) [1]: highly flammable | FP [1]: 13 °C | Tb [2]: 78 °C | ΔHvap [3]: 837 kJ/kg | Toxicity [4]: No (a fluid is non-toxic if its oral LD50 is greater than 500 mg/kg)

CCOC(F)(F)C(F)(F)C(F)(F)C(F)(F)F [HFE 3M Novec 7100, ethoxynonafluorobutane]
FP [1]: None | Tb [2]: 76 °C | ΔHvap [3]: 126 kJ/kg | Toxicity [4]: No (a fluid is non-toxic if its oral LD50 is greater than 500 mg/kg)

O [Water]
Flammability (in words) [1]: fireproof | FP [1]: None | Tb [2]: 100 °C | Toxicity [4]: No (a fluid is non-toxic if its oral LD50 is greater than 500 mg/kg) | Toxicity (in words) [4]: non-toxic

OCCO [ethylene glycol]
Toxicity (in words) [4]: highly toxic

CC(O)CO (stereo not shown) [Propylene-glycol, propylene glycol]
FP [1]: 107 °C | Tb [2]: 187 °C | ΔHvap [3]: 736 kJ/kg | Toxicity [4]: No (a fluid is non-toxic if its oral LD50 is greater than 500 mg/kg)

COCC(C)O (stereo not shown) [1-methoxy-2-propanol]
FP [1]: 34 °C | Tb [2]: 118 °C | ΔHvap [3]: 461 kJ/kg | Toxicity [4]: No (a fluid is non-toxic if its oral LD50 is greater than 500 mg/kg)

CO [Methanol]
Flammability (in words) [1]: highly flammable | FP [1]: 11 °C | Tb [2]: 64 °C | ΔHvap [3]: 1098 kJ/kg | Toxicity [4]: Yes
